Publication PMC8742467, “Therapeutical interference with the epigenetic landscape of germ cell tumors: a comparative drug study and new mechanistical insights” (Clinical Epigenetics, 2022)

Columns and labels:
[1] = test system: DNA methylation (5mC, 5hmC) in 2102EP cells; assay: DNA slot blot (5mC, 5hmC); type: cell-based, Human; conditions: 24 h
Procedure: Purity of DNA was verified using NanoDrop 260/280 ratio and agarose gel electrophoresis. DNA was diluted in H2O to 200 ng, 100 ng and 50 ng in 200 µl per slot. Slot-Blotter device (Carl Roth GmbH + Co KG, Karlsruhe, Germany) was assembled as according to the manual. DNA was blotted onto a positively charged nylon membrane (Carl Roth GmbH + Co KG, Karlsruhe, Germany) using vacuum application. Three identical membranes were prepared. The membranes were air-dried for 15—20 min and UV-crosslinked (20 s (s), 1200 mJ/cm^2). One membrane was stained with methylene blue (0.02% methylene blue (Merck Millipore, Darmstadt, Germany) in 0.3 M sodium acetate (pH 5.2)) to validate DNA loading across the samples. The remaining two membranes were blocked in 5% milk powder in PBST for 1 h at RT. Membranes were incubated with 5mC or 5hmC antibody overnight at 4 °C. After washing, membranes were incubated with secondary antibody for 2 h at RT. Signals were detected using the ChemiDoc Imaging Systems (Bio-Rad Laboratories, Feldkirchen, Germany).

[2] = test system: phosphorylated kinase targets in 2102EP cells; assay: Proteome Profiler Human Phospho-Kinase Array; type: cell-based; conditions: 16 h
Procedure: For the detection of phosphorylated kinase targets, the Proteome Profiler Human Phospho-Kinase Array Kit (R&D Systems, Abingdon, UK) was used according to the manufacturer’s instructions. The ChemiDoc Imaging System (Bio-Rad Laboratories, Feldkirchen, Germany) was used for detection. 2102EP cells were harvested after 16 h of treatment with the epi-drugs. Pixel density was analyzed using Fiji ImageJ 1.53c.

[3] = test system: histone modifications in 2102EP cells; assay: Mass spectrometry analysis of histone modifications (Mod Spec); type: cell-based, Human
Method in brief: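 2102EP cells were treated for 16 h with EC50 concentrations of Quisinostat, JIB-04, Chaetocin, MZ-1, LP99, PRT4165 or GSK343, with DMSO as solvent control. After trypsin harvest, histones were extracted and analysed by mass spectrometry. Raw data were converted to z-scores.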

[4] = 2102EP cells, Mod Spec raw data
[5] = 2102EP, EC50, 16 h, vs solvent control

## O=C1C(=Cc2cccnc2)C(=O)c2ccccc21 [PRT4165]
[1]
  5hmC levels increase compared to solvent control: 25%
[1]; solvent control set to 100%
  5mC levels compared to solvent control: 84%
[2]
  CREB, STAT3 and STAT5 phosphorylation and total levels of β-Catenin and HSP60: decreased
  ERK1/2 phosphorylation: decreased
[3]; [4]
  H1.4: K25AC, % of peptide pool: 0.05173%
  H1.4: K25ME1, % of peptide pool: 2.298%
  H1.4: K25ME2, % of peptide pool: 0.1042%
  H1.4: K25ME3, % of peptide pool: 0.02395%
  H1.4: K25UN, % of peptide pool: 97.522%
  H2A1: K13AC, % of peptide pool: 0.008344%
  H2A1: K13UN, % of peptide pool: 99.9917%
  H2A1: K15AC, % of peptide pool: 0.002728%
  H2A1: K15UB, % of peptide pool: 0%
  H2A1: K15UN, % of peptide pool: 99.9973%
  H2A3: K13AC, % of peptide pool: 0.03698%
  H2A3: K13UN, % of peptide pool: 99.963%
  H2A3: K15AC, % of peptide pool: 0.08285%
  H2A3: K15UB, % of peptide pool: 0%
  H2A3: K15UN, % of peptide pool: 99.9171%
  H2A: K5AC, % of peptide pool: 15.4182%
  H2A: K5UN, % of peptide pool: 84.5818%
  H2A: K9AC, % of peptide pool: 1.95%
  H2A: K9UN, % of peptide pool: 98.0496%
  H2A: K36AC, % of peptide pool: 0.05592%
  H2A: K36UN, % of peptide pool: 99.9441%
  H3: K9AC, % of peptide pool: 0.7791%
  H3: K9ME1, % of peptide pool: 33.7783%
  H3: K9ME2, % of peptide pool: 30.8531%
  H3: K9ME3, % of peptide pool: 3.071%
  H3: K9UN, % of peptide pool: 31.5183%
  H3: K14AC, % of peptide pool: 32.0961%
  H3: K14UN, % of peptide pool: 67.9039%
  H3: K18AC, % of peptide pool: 12.9985%
  H3: K18ME1, % of peptide pool: 0.1614%
  H3: K18UN, % of peptide pool: 86.8401%
  H3: K23AC, % of peptide pool: 19.4498%
  H3: K23ME1, % of peptide pool: 0.05975%
  H3: K23UN, % of peptide pool: 80.4904%
  H3: K56AC, % of peptide pool: 0.4117%
  H3: K56ME1, % of peptide pool: 1.0746%
  H3: K56UN, % of peptide pool: 98.5137%
  H3: K64AC, % of peptide pool: 0.02258%
  H3: K64UN, % of peptide pool: 99.9774%
  H3: K79AC, % of peptide pool: 3.311%
  H3: K79ME1, % of peptide pool: 23.508%
  H3: K79ME2, % of peptide pool: 7.992%
  H3: K79ME3, % of peptide pool: 11.4561%
  H3: K79UN, % of peptide pool: 53.7325%
  H3: K122AC, % of peptide pool: 0.1739%
  H3: K122UN, % of peptide pool: 99.8261%
  H3: Q19ME1, % of peptide pool: 0.01555%
  H3: Q19UN, % of peptide pool: 99.9844%
  H3: Q55ME1, % of peptide pool: 0.5287%
  H3: Q55UN, % of peptide pool: 99.4713%
  H3: R42ME2, % of peptide pool: 2.978%
  H3: R42UN, % of peptide pool: 97.0223%
  H3: R49ME2, % of peptide pool: 9.973%
  H3: R49UN, % of peptide pool: 90.0271%
  H3R2UN: K4AC, % of peptide pool: 0.1986%
  H3R2UN: K4ME1, % of peptide pool: 18.1935%
  H3R2UN: K4ME2, % of peptide pool: 0.2356%
  H3R2UN: K4ME3, % of peptide pool: 0.09008%
  H3R2UN: K4UN, % of peptide pool: 81.2822%
  H3R2UN: Q5ME1, % of peptide pool: 0.1103%
  H3R2UN: Q5UN, % of peptide pool: 99.8897%
  H3.1: K27AC, % of peptide pool: 2.4319%
  H3.1: K27ME1, % of peptide pool: 48.1679%
  H3.1: K27ME2, % of peptide pool: 21.916%
  H3.1: K27ME3, % of peptide pool: 3.429%
  H3.1: K27UN, % of peptide pool: 24.0551%
  H3.1: K36AC, % of peptide pool: 0.4356%
  H3.1: K36ME1, % of peptide pool: 14.9062%
  H3.1: K36ME2, % of peptide pool: 45.0841%
  H3.1: K36ME3, % of peptide pool: 22.3724%
  H3.1: K36UN, % of peptide pool: 17.2016%
  H3.3: K27AC, % of peptide pool: 6.482%
  H3.3: K27M, % of peptide pool: 0%
  H3.3: K27ME1, % of peptide pool: 46.8114%
  H3.3: K27ME2, % of peptide pool: 16.0905%
  H3.3: K27ME3, % of peptide pool: 6.139%
  H3.3: K27UN, % of peptide pool: 24.4778%
  H3.3: K36AC, % of peptide pool: 3.39%
  H3.3: K36ME1, % of peptide pool: 13.3786%
  H3.3: K36ME2, % of peptide pool: 45.5834%
  H3.3: K36ME3, % of peptide pool: 23.7392%
  H3.3: K36UN, % of peptide pool: 13.9089%
  H4: K5AC, % of peptide pool: 8.039%
  H4: K5UN, % of peptide pool: 91.9614%
  H4: K8AC, % of peptide pool: 12.3075%
  H4: K8UN, % of peptide pool: 87.6925%
[3]; 2102EP cells, Mod Spec raw data, histone H4 K12 acetylated
  H4: K12AC, % of peptide pool: 6.955 % of peptide pool
[3]; 2102EP cells, Mod Spec raw data, histone H4 K12 unmodified
  H4: K12UN, % of peptide pool: 93.045 % of peptide pool
[3]; 2102EP cells, Mod Spec raw data, histone H4 K16 acetylated
  H4: K16AC, % of peptide pool: 45.5782 % of peptide pool
[3]; 2102EP cells, Mod Spec raw data, histone H4 K16 unmodified
  H4: K16UN, % of peptide pool: 54.4218 % of peptide pool
[3]; 2102EP cells, Mod Spec raw data, histone H4 K20 acetylated
  H4: K20AC, % of peptide pool: 32.1833 % of peptide pool
[3]; 2102EP cells, Mod Spec raw data, histone H4 K20 dimethylated
  H4: K20ME2, % of peptide pool: 44.5336 % of peptide pool
[3]; 2102EP cells, Mod Spec raw data, histone H4 K20 monomethylated
  H4: K20ME1, % of peptide pool: 4.33 % of peptide pool
[3]; 2102EP cells, Mod Spec raw data, histone H4 K20 trimethylated
  H4: K20ME3, % of peptide pool: 2.102 % of peptide pool
[3]; 2102EP cells, Mod Spec raw data, histone H4 K20 unmodified
  H4: K20UN, % of peptide pool: 16.8517 % of peptide pool
[3]; [5]
  change of histone modifications of the expected mode of action (Mod Spec): decreased ubiquitination (ub) of the target histone H2AK119 [50] could not be detected
  off-target changes of histone modifications (Mod Spec): increase of H3K36me3, H4K20ac, H3K79me1/ac
